Experiments:
[1] = test system: Escherichia coli (E. coli—ATCC #10536); assay: Automated assessment of efficacy in surfactant base (2.85% sodium cocoyl glycinate and 1.85% sodium lauroamphoacetate, pH 10.0), 15 seconds exposure; assay type: cell-based; details: for No. of replicates showing growth (out of 4) / Δ OD 450 nm = OD450 (time = 16 hours) − OD450 (time zero), Mean / Δ OD 590 nm OD590 (time = 16 hours) − OD590 (time zero), Mean: alone, model surfactant solution
Description: Test Methodology for Automated Assessment of Efficacy in Surfactant Base Microbiocidal Activity of Actives as Per the Invention in a Model Surfactant Medium Test Methodology for Automated Assessment of Efficacy in Surfactant Base In these examples, the efficacy of combinations of actives were tested in a surfactant cleansing formulation comprising 2.85% sodium cocoyl glycinate and 1.85% sodium lauroamphoacetate. This corresponds to a 50% in use dilution with water of a neat formulation containing 5.7% cocoyl glycinate and […] % sodium, lauroamphoacetate during hand washing. Solutions were prepared such that the concentrations of the surfactant components and test actives were 1.1× the final desired concentration in order to allow for dilution with the bacterial inoculum in the test. The solutions were manually adjusted to pH 10.0 by dropwise addition of sodium hydroxide solution, as measured with a pH meter at ambient temperature. The efficacy of the combinations of the present invention was determined against Escherichia coli (E. coli—ATCC #10536), at a concentration of approximately 1×10^8 bacteria per mL. Tests were conducted using standard microtiter plate assays using an automated liquid handling system. 270 μl of the surfactant test solution was pipetted into each well of the microtitre plate and 30 μl of the bacterial suspension was then added. Alter exactly 15 seconds of bacterial exposure, a 30 μl volume of bacterial cells was withdrawn and transferred to 270 μl of D/E quench solution. After 5 minutes in the D/E quench, the optical density (OD) was measured for each plate in turn at two specific wavelengths (450 nm and 590 nm). These provide a dual check of antimicrobial activity, as the OD450 reading is specific for the yellow colour of D/E quench when bacterial growth is observed, whereas OD590 is specific for the initial purple colour of the D/E quench which is retained if no bacterial growth is observed. After the time zero OD measurements, plates were then incubated at 37° C. overnight (16 hours) before repeating the OD measurements. Delta OD values were calculated by subtracting […]. Bacterial growth is observed as an increase in OD450 and a decrease in ΔOD590. To identify antibacterially efficacious systems (those preventing appreciable bacterial growth after incubation), the following threshold changes in OD readings have been adopted: if (1). OD450 increases by less than 0.2 absorbance unit on incubation and (2). OD590 decreases by less than 0.35 unit on incubation. Conversely, where OD450 increases by more than 0.2 AU and OD590 decreases by more than 0.35 unit after incubation, corresponding to a colour shift from purple to yellow, the test system allows bacterial growth and is not deemed efficacious. Four replicate measurements in the same plate have been made for each test system. The number of replicate wells showing either bacterial growth or no growth is also readily assessed by eye by following the colour change. Dose responses for individual components and binary mixtures of actives at a fixed concentration ratio were generated by sequential dilution of liquors with further surfactant solution to obtain a series of endpoints. […] In some selected cases, the combinations were also tested at the weight ratio 1:1.

[2] = test system: Staphylococcus aureus (10788 strain); assay: 15 second contact kill test / antimicrobial efficacy of actives against S. aureus in water; assay type: cell-based; details: 0.1% 3 isopropyl 6 methyl catechol (IPMC) alone
Description: Selected materials were also tested against a representative Grant positive Staphylococcus aureus. An overnight culture of Staphylococcus aureus (10788 strain) was inoculated onto a […] Soy Agar (TSA) plate and grown for ca. 18 hrs at 37° C. The culture S. aureus was washed from the plate using sterile saline (0.85% NaCl) solution and a sterile spreader and suspended in 50 ml saline. This suspension was separated into equal volumes and centrifuged at 4000 rpm for 15 minutes. […] Here, OD620 indicates the absorbance of a sample in a cuvette of 1.0 cm path length at a wavelength of 620 nm. This bacterial stock was used for assaying against antimicrobial actives (in triplicate). The following assay describes the testing of 8 materials using 6 dilutions across half of a 96-well micro titre plate (MTP). Using this approach it is possible to assay 16 actives (without replicates) with one full dilution plate, replicating this set up in two halves of the plate columns, 1-6 and 7-12. 1M solutions of the test actives were prepared in dimethylsulphoxide (DMSO). […] Aliquots (270 μl) of the materials at 1.11 times the final concentration were dispensed into the wells of the MTP along one column (A1-H1). This MTP was labelled as the “Screening plate”. In another MTP, labelled as the “Dilution plate”, […] of D/E neutralising solution from DIFCO Composition was added to column 1. The composition of the neutralising solution was as follows: pancreatic digest of casein, 5.0 g/L; […] Dextrose, 10 g/L, sodium thioglycollate, 1.0 g/L, sodium thiosulphate, 6.0 g/L; sodium bisulphite, 2.5 g/L; […] […] From the colony number in this segment, NMBS is calculated by the formula: NMBS=log {Ncol·10^DF·100/3} Here, Ncol is the colony count, and DF is the dilution factor taken from the MTP-well corresponding to the TSA plate segment (i.e. DF may range from 1 for the quench, to 6 for the highest dilution). […] Here, OD620 indicates the absorbance of a sample in a cuvette of 1.0 cm path length at a wavelength, of 620 nm. […]

## Cc1ccc(C(C)C)c(O)c1O [3-isopropyl-6-methylbenzene-1,2-diol]
[1]; 0.175% w/v
  No. of replicates showing growth (out of 4): 4
  Δ OD 450 nm = OD450 (time = 16 hours) − OD450 (time zero), Mean: −0.51
  Δ OD 590 nm OD590 (time = 16 hours) − OD590 (time zero), Mean: 0.53
[1]; 0.2% w/v
  No. of replicates showing growth (out of 4): 4
  Δ OD 450 nm = OD450 (time = 16 hours) − OD450 (time zero), Mean: −0.53
  Δ OD 590 nm OD590 (time = 16 hours) − OD590 (time zero), Mean: 0.53
[1]; […] w/v
  No. of replicates showing growth (out of 4): 4
  Δ OD 450 nm = OD450 (time = 16 hours) − OD450 (time zero), Mean: −0.50
  Δ OD 590 nm OD590 (time = 16 hours) − OD590 (time zero), Mean: 0.56
[1]; in 2.85% sodium cocoyl glycinate + 1.85% sodium lauroamphoacetate solution at pH 10, E. coli
  MBC (minimum biocidal concentration): >0.2 % w/v
[2]
  S. aureus 6538 Log Reduction: −0.07

Reference: US9320271B2, “Microbial composition” (Rohm and Haas Company, priority 2011, dated 2016)
